Source: publication doi:10.1101/2023.09.29.560149v2 (biorxiv, 2024)

How the values were obtained:
in vitro [1] = conditions: african green monkey, vero cells
in vitro [2] = conditions: hamster, bhk-21 cells
Chikungunya virus CHIKV = assay: microbe, parasite or virus in culture; conditions: Vero, 24 h, read-out: CHIKV EC50 (µM)
Sindbis virus SINV = assay: microbe, parasite or virus in culture; conditions: Vero, 24 h, read-out: SINV EC50 (µM)

SMILES | CC50 at 24 h (in vitro [1]) | CC50 at 24 h (in vitro [2]) | EC50 (Chikungunya virus CHIKV) | EC50 (Sindbis virus SINV)
C[C@H]1CC[C@]2(NC1)O[C@H]1C[C@H]3[C@@H]4CC[C@H]5C[C@@H](O)CC[C@]5(C)[C@H]4CC[C@]3(C)[C@H]1[C@@H]2C [Tomatidine] | 17.2 µM | 23.8 µM | 5.35 µM | 2.47 µM
O=C1Nc2ccc(Cl)cc2[C@@](C#CC2CC2)(C(F)(F)F)O1 [efavirenz] | 53.6 µM | 40.9 µM | 1.33 µM | 0.72 µM
